Laboratory results as given in patent US20070094743A1, “ABCG1/ABCG4-related methods and compositions” (priority 2005, published 2007).

Tests used:
[1] = tested on: ABCG1 mRNA; experiment: ABCG1 mRNA levels normalized against β-actin mRNA, Taqman real-time RT-PCR, in mouse macrophages; format: cell-based; conditions: 2 μM, data not shown
Experimental: (§1) Where indicated, RNA oligonucleotides targeting both sequences were mixed and used to down-regulate ABCG1 or ABCG4 gene expression. The scrambled control RNA oligonucleotides also were obtained from Dharmacon. An independent set of siRNA targeting ABCG1 (5′[…]3′) or ABCG4 (5′[…]3′) was obtained from Qiagen and used where indicated. For cholesterol efflux assays, mouse peritoneal macrophages were plated in 24- or 48-well plates and cultured in 10% fetal bovine serum and DMEM media at 37° C. for 24 hours. Cells were then transfected with siRNA and LipofectAMINE 2000 at the indicated concentration and labeled with isotopic cholesterol (2 μCi/ml [^3H]cholesterol in 1% fetal bovine serum) in the presence or absence of TO901317 (2 μM) for 48 hours. Cells were washed twice and equilibrated for 30 minutes for the third wash, and then HDL or other acceptors were added for the indicated period. Levels of ABCG1 and ABCG4 mRNAs normalized against β-actin mRNA were determined using Taqman real-time quantititative RT-PCR. The primers and probes were from Applied Biosystems.

[2] = tested on: ABCG4 mRNA; experiment: ABCG4 mRNA levels normalized against β-actin mRNA, Taqman real-time RT-PCR, in mouse macrophages; format: cell-based; conditions: 2 μM, data not shown
Experimental: as §1

**Q.** Which results are given for `O=S(=O)(c1ccccc1)N(CC(F)(F)F)c1ccc(C(O)(C(F)(F)F)C(F)(F)F)cc1` [T0901317]?
**A.** increase of mRNA levels of ABCG1 [1]: 3 fold; increase of mRNA levels of ABCG4 [2]: 2 fold
